Data on one compound can be found in BindingDB's records for PubMed 36250680 (University of Pisa, 2022).

The test deals with Macrophage metalloelastase (Homo sapiens, UniProt P39900). The experiment in a line: Inhibition of MMP12 (unknown origin).

What is called Ki is the dissociation constant of the complex between target and ligand, obtained from inhibition or displacement. A low value points to tighter binding.

Chain of Macrophage metalloelastase (P39900 whole entry): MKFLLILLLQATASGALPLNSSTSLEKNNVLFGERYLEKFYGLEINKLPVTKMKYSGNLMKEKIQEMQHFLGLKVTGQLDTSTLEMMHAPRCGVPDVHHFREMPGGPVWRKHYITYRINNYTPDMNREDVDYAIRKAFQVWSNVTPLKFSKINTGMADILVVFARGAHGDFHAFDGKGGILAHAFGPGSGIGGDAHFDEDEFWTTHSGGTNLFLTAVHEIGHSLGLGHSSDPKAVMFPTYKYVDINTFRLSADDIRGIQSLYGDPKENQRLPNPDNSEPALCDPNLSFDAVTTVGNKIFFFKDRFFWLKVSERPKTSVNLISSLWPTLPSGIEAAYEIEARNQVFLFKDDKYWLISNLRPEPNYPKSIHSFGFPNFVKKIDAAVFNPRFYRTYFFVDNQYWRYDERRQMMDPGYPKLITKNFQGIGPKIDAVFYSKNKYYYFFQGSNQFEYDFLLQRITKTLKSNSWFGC

With `Oc1cccc(O)c1O`, the Ki was 2030 nM.
